According to ChEMBL document CHEMBL1201862, “PubChem BioAssay data set” (2004):
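Dose response: 5 concentrations. Exposure: 48 h. Format: 96-well plates. Endpoint: linear interpolation; highest concentration if not reached. The concentration for 50% growth inhibition is given as GI50.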 Active and inactive are the calls of the source. No stated cut-off is given here; in the data, active = GI50 up to about 1.1 µM and inactive = higher.

Columns and labels:
Assay in all cases: NCI tumour cell line growth inhibition, 48 h
786-0 = tested on: 786-0
A498 = tested on: A498
A549 = tested on: A549
ACHN = tested on: ACHN
CAKI-1 = tested on: CAKI-1
CCRF-CEM = tested on: CCRF-CEM
COLO 205 = tested on: COLO 205
DLD-1 = tested on: DLD-1
DMS-273 = tested on: DMS-273
DU-145 = tested on: DU-145
EKVX = tested on: EKVX
HCC 2998 = tested on: HCC 2998
HCT-116 = tested on: HCT-116
HCT-15 = tested on: HCT-15
HL-60 = tested on: HL-60
HOP-18 = tested on: HOP-18
HOP-62 = tested on: HOP-62
HOP-92 = tested on: HOP-92
HT-29 = tested on: HT-29
IGROV-1 = tested on: IGROV-1
K562 = tested on: K562
KM-20L2 = tested on: KM-20L2
KM12 = tested on: KM12
LOX IMVI = tested on: LOX IMVI
LXFL 529 = tested on: LXFL 529
M14 = tested on: M14
M19-MEL = tested on: M19-MEL
MOLT-4 = tested on: MOLT-4
Malme-3M = tested on: Malme-3M
NCI-H226 = tested on: NCI-H226
NCI-H23 = tested on: NCI-H23
NCI-H460 = tested on: NCI-H460
NCI-H522 = tested on: NCI-H522
OVCAR-3 = tested on: OVCAR-3
OVCAR-4 = tested on: OVCAR-4
OVCAR-5 = tested on: OVCAR-5
OVCAR-8 = tested on: OVCAR-8
PC-3 = tested on: PC-3
RPMI-8226 = tested on: RPMI-8226
RXF 393 = tested on: RXF 393
RXF 631 = tested on: RXF 631
SF-268 = tested on: SF-268
SF-295 = tested on: SF-295
SF-539 = tested on: SF-539
SK-MEL-28 = tested on: SK-MEL-28
SK-MEL-2 = tested on: SK-MEL-2
SK-MEL-5 = tested on: SK-MEL-5
SK-OV-3 = tested on: SK-OV-3
SN12C = tested on: SN12C
SNB-19 = tested on: SNB-19
SNB-75 = tested on: SNB-75
SNB-78 = tested on: SNB-78
SR = tested on: SR
SW-620 = tested on: SW-620
TK-10 = tested on: TK-10
U-251 = tested on: U-251
UACC-257 = tested on: UACC-257
UACC-62 = tested on: UACC-62
UO-31 = tested on: UO-31
XF498 = tested on: XF498
DMS-114 = tested on: DMS-114

COC1=C2CC(C)CC(OC)C(O)C(C)/C=C(\C)C(OC(N)=O)C(OC)/C=C\C=C(/C)C(=O)NC(=C(/C=N/N3CCCCC3)C1=O)C2=O (stereo not given)
GI50 (786-0): 10.2 µM (inactive)
GI50 (A498): 23.9 µM (inactive)
GI50 (A549): 21.5 µM (inactive)
GI50 (ACHN): 15.4 µM (inactive)
GI50 (CAKI-1): 15.7 µM (inactive)
GI50 (CCRF-CEM): 2.55 µM (inactive)
GI50 (COLO 205): 2.93 µM (inactive)
GI50 (DLD-1): 8.47 µM (inactive)
GI50 (DMS-273): 13.6 µM (inactive)
GI50 (DU-145): 18.3 µM (inactive)
GI50 (EKVX): 8.43 µM (inactive)
GI50 (HCC 2998): 6.7 µM (inactive)
GI50 (HCT-116): 3.25 µM (inactive)
GI50 (HCT-15): 12.2 µM
GI50 (HL-60): 1.95 µM (inactive)
GI50 (HOP-18): 11.9 µM (inactive)
GI50 (HOP-62): 18.3 µM (inactive)
GI50 (HOP-92): 15.7 µM (inactive)
GI50 (HT-29): 6.55 µM (inactive)
GI50 (IGROV-1): 5.5 µM (inactive)
GI50 (K562): 5.4 µM (inactive)
GI50 (KM-20L2): 5 µM (inactive)
GI50 (KM12): 11.6 µM (inactive)
GI50 (LOX IMVI): 8.55 µM (inactive)
GI50 (LXFL 529): 10 µM (inactive)
GI50 (M14): 18.7 µM (inactive)
GI50 (M19-MEL): 7 µM (inactive)
GI50 (MOLT-4): 2.62 µM (inactive)
GI50 (Malme-3M): 15.2 µM (inactive)
GI50 (NCI-H226): 12.4 µM (inactive)
GI50 (NCI-H23): 15.8 µM (inactive)
GI50 (NCI-H460): 19.5 µM (inactive)
GI50 (NCI-H522): 2.55 µM (inactive)
GI50 (OVCAR-3): 2.15 µM (inactive)
GI50 (OVCAR-4): 5.26 µM (inactive)
GI50 (OVCAR-5): 19.4 µM (inactive)
GI50 (OVCAR-8): 3.83 µM (inactive)
GI50 (PC-3): 15.3 µM (inactive)
GI50 (RPMI-8226): 5.55 µM (inactive)
GI50 (RXF 393): 5.73 µM (inactive)
GI50 (RXF 631): 8.28 µM (inactive)
GI50 (SF-268): 6.18 µM (inactive)
GI50 (SF-295): 13.5 µM (inactive)
GI50 (SF-539): 7.33 µM (inactive)
GI50 (SK-MEL-28): 18.7 µM (inactive)
GI50 (SK-MEL-2): 17 µM (inactive)
GI50 (SK-MEL-5): 15.8 µM (inactive)
GI50 (SK-OV-3): 21.9 µM (inactive)
GI50 (SN12C): 4.5 µM (inactive)
GI50 (SNB-19): 16.1 µM (inactive)
GI50 (SNB-75): 17.8 µM (inactive)
GI50 (SNB-78): 12.4 µM (inactive)
GI50 (SR): 2.59 µM (inactive)
GI50 (SW-620): 2.82 µM (inactive)
GI50 (TK-10): 27.9 µM (inactive)
GI50 (U-251): 6.4 µM (inactive)
GI50 (UACC-257): 11.9 µM (inactive)
GI50 (UACC-62): 18.6 µM (inactive)
GI50 (UO-31): 10.8 µM (inactive)
GI50 (XF498): 8.95 µM (inactive)

CCOC(=O)NC(=O)c1cn(CCN2CCN(c3ncnc4[nH]cnc34)CC2)c(=O)[nH]c1=O
GI50 (786-0): > 100 µM (inactive)
GI50 (A498): > 100 µM (inactive)
GI50 (A549): > 100 µM (inactive)
GI50 (ACHN): > 100 µM (inactive)
GI50 (CCRF-CEM): > 100 µM (inactive)
GI50 (COLO 205): > 100 µM (inactive)
GI50 (DLD-1): > 100 µM (inactive)
GI50 (DMS-114): > 100 µM (inactive)
GI50 (EKVX): > 100 µM (inactive)
GI50 (HCC 2998): > 100 µM (inactive)
GI50 (HCT-116): > 100 µM (inactive)
GI50 (HCT-15): > 100 µM
GI50 (HL-60): > 100 µM (inactive)
GI50 (HOP-18): > 100 µM (inactive)
GI50 (HOP-62): > 100 µM (inactive)
GI50 (HOP-92): 10.6 µM (inactive)
GI50 (HT-29): > 100 µM (inactive)
GI50 (IGROV-1): > 100 µM (inactive)
GI50 (K562): > 100 µM (inactive)
GI50 (KM-20L2): > 100 µM (inactive)
GI50 (KM12): > 100 µM (inactive)
GI50 (LOX IMVI): > 100 µM (inactive)
GI50 (LXFL 529): > 100 µM (inactive)
GI50 (M14): > 100 µM (inactive)
GI50 (M19-MEL): > 100 µM (inactive)
GI50 (MOLT-4): > 100 µM (inactive)
GI50 (Malme-3M): > 100 µM (inactive)
GI50 (NCI-H226): > 100 µM (inactive)
GI50 (NCI-H23): > 100 µM (inactive)
GI50 (NCI-H460): > 100 µM (inactive)
GI50 (NCI-H522): > 100 µM (inactive)
GI50 (OVCAR-3): > 100 µM (inactive)
GI50 (OVCAR-5): > 100 µM (inactive)
GI50 (OVCAR-8): > 100 µM (inactive)
GI50 (RPMI-8226): > 100 µM (inactive)
GI50 (RXF 393): > 100 µM (inactive)
GI50 (RXF 631): > 100 µM (inactive)
GI50 (SF-268): > 100 µM (inactive)
GI50 (SF-295): > 100 µM (inactive)
GI50 (SF-539): > 100 µM (inactive)
GI50 (SK-MEL-28): > 100 µM (inactive)
GI50 (SK-MEL-2): > 100 µM (inactive)
GI50 (SK-MEL-5): > 100 µM (inactive)
GI50 (SK-OV-3): > 100 µM (inactive)
GI50 (SN12C): > 100 µM (inactive)
GI50 (SNB-19): > 100 µM (inactive)
GI50 (SNB-75): > 100 µM (inactive)
GI50 (SR): > 100 µM (inactive)
GI50 (SW-620): > 100 µM (inactive)
GI50 (TK-10): > 100 µM (inactive)
GI50 (U-251): > 100 µM (inactive)
GI50 (UACC-257): > 100 µM (inactive)
GI50 (UACC-62): > 100 µM (inactive)
GI50 (UO-31): > 100 µM (inactive)
GI50 (XF498): > 100 µM (inactive)
